# Results: patent US6303621A, “Method for treating cancers using a diiodo thyronine analogue having no significant hormonal activity and a vinca alkaloid and compositions comprising the same” (priority 1999, dated 2001)
# “Also recorded” adds a separate entry of the source.
# Legend:
# [1] = test system: cells (DNA breaks); experiment: DNA breaks in cells incubated with DIME; format: cell-based
# [2] = test system: caspase 3; experiment: Caspase 3 assay in drug-treated cells; format: cell-based, human; settings: 0.75 μM DIME or 2 nM vincristine alone, 3 days
# Method: g. Caspase 3 assay. MDA 231 cells were grown for 3 days in the absence of drugs (control) or in the presence of 0.75 μM DIME, or in the presence of 2 nM vincristine, or in the presence of both drugs. After harvesting and washing the cells with PBS, they were lysed in a lysis buffer (10 mM HEPES, 5 mM DTT, 2 mM EDTA, 1 mM PMSF, 0.1% CHAPS, 20 μg/ml each of aprotinin, leupeptin, pepstatin, pH 7.4), and were frozen and thawed 3 times. […] Each cell extract was incubated at room temperature with and without preincubation with the caspase inactivator DEVD-CMK. The difference of fluorescence was plotted against time. The fluorescence was calibrated with the fluorophore AFC.
# [3] = test system: caspase 3; experiment: Caspase 3 in cell-free extracts treated with drugs; format: biochemical; settings: results not shown
# [4] = test system: non-malignant mouse pituitary adenoma; settings: in vivo; cited from earlier work
# [5] = test system: nontumorigenic cells; experiment: DIME uptake / permeation in nontumor cells; format: cell-based; settings: versus malignant counterparts
# [6] = Serum half-life and bioavailability of 14C-labeled DIME; format: in vivo; settings: mice
# Method: Mice were orally dosed with 126 mg/kg 14C-labeled DIME (Compound 1). After dosing, blood sampling times were 15 and 30 minutes and 1, 2, 4, 6, 8 and 24 hours. Aliquots (50 μL) of blood were assayed in a liquid scintillation counter and data expressed as microgram-equivalents per mL. The blood level data were analyzed by the […] method (Micromath, Salt Lake City, Utah). Parallel groups of mice were dosed intravenously with 24.5 mg/kg 14C-labeled DIME and blood sampling times were 10, 20 and 30 minutes and 1, 2, 4, 6 and 8 hours.
# [7] = test system: human cancer cells; experiment: Cytostatic / cytocidal activity of DIME analogues on human cancer cells; format: cell-based
# Description: Such tests may also screen for the ability of a particular compound to inhibit malignant tumor cell growth in vitro or in vivo or abolish tumorigenicity of malignant cells.
# As will be appreciated by the skilled artisan, many varieties of malignant tumor cell cultures and cell lines may be used to screen for activity, including but not limited to HL-60, HT-144, E-ras-20, DU-145, MDA-168, MCF-7, 855-2 and MDA-MB-231. Of course, other in vitro and/or in vivo assays as will be apparent to the skilled artisan to screen for anti-tumor and/or anti-cancer activity may also be employed to identify effective diiodo thyronine analogues useful in the present invention.
# [8] = test system: DIME-tolerant clones; experiment: DIME uptake by DIME-tolerant clones; settings: DIME-tolerant clones grown in 1.5 μM DIME
# Method: DIME-tolerant clones DR6and DR 7 were isolated by incubation of cells in a mediim containing 1.5 μM DIME for 11 days. At that time surviving colonies were picked with the use of cloning rings and plated for growth in fresh mediim still containing 1.5 μM DIME. After two weeks of growth in the presence of drug the cells were aliquoted and frozen. For each experiment a vial of frozen cells was thawed, the cells were plated in the absence of drug, and incubated for 2-3 days in drug-free mediim.
# [9] = test system: metaphase arrest in cancer cells; experiment: Metaphase block (mitotic block); format: cell-based
# Description: Metaphase was quantitated as reported by Mendeleyev et al., International Journal of Oncology 10:689-695 (1997).
# Since vincristine and vinblastine were equivalent here we illustrate only DIME-vinblastine interaction on mitotic block.
# [10] = test system: MDA-MB-231 xenografts; experiment: Inhibition of MDA-MB-231 xenografts in nude mice; format: in vivo, human mammary cancer xenograft in nude mice
# Description: The ability of human tumors to grow as xenografts in athymic mice (e.g., nude mice) provides a useful in vivo model for studying the biological response to therapies for human tumors. Since the first successful xenotransplantation of human tumors into athymic mice (Rygaard et al., 1969, Acta Pathol. Microbial. Scand. 77:758-760), many different human tumor cell lines (e.g., mammary, lung, genitourinary, gastrointestinal, head and neck, glioblastoma, bone and malignant melanomas) have been successfully transplanted and grown into nude mice. Human mammary tumor cell lines, including MCF-7, ZR75-1 and MDA-MB-231, have been established as subcutaneous grafts in nude mice (Warri et al., 1991, Intl. J. Cancer 49:616-23; Ozzello et al., 1980, Eur. J. Cancer 16:553-559; Osbourne et al., 1985, Cancer Res. 45:584-590; Siebert et al., 1983, Cancer Res. 43:2223-2239).
# MDA-MB-231 (human mammary cancer) cells were obtained from American Type Culture Collection (Rockville, Md.) and maintained in the recommended growth media. Twenty nude mice were each inoculated subcutaneously with MDA-MB-231 cells (10^6 cells/[…]). To one group often mice, DIME was administered by gavage (250 mg/kg, 10 mL/kg in corn oil) once […] per day, 5 days per week, for a total of 32 days. The other (control) group of ten mice was given administered vehicle only according to the same dosing schedule. Tumors were measured twice weekly using a Vernier caliper, and the mean tumor volume was determined at each time point. Comparisons between groups were made using an unpaired, two-tailed t-test and the results were analyzed using analysis of variance.
# [11] = test system: DIME-tolerant clones DR6 and DR7; experiment: Colony formation of DIME-tolerant clones; format: cell-based, human; settings: concentrations that reduce colony formation by 10^3 in parent line
# Description: e. Colony formation was quantitated as reported by. Each colony of 50 cells is the outgrowth from one cell, plated 10 days before colony counting.
# [12] = test system: tumor cells; experiment: Tumor cell apoptosis and micronucleation; format: cell-based
# [13] = Toxicity, daily oral dosing in nude mice; format: in vivo; settings: daily oral dose 1 g/kg, 12-15 days
# Method: Ten nude mice were administered a daily oral dose of ^14 C-labeled DIME (Compound 1) (1.0 g/kg, 0.1 mL in corn oil) for a period of 12-15 days.
# [14] = test system: tadpole metamorphosis; settings: in vivo; cited from earlier work
# [15] = test system: thyroid; settings: rats; as compared to thyroxine; cited from earlier work
# [16] = test system: microtubules; experiment: Microtubule binding
structure (smiles),measurement,setting,value
"COC(=O)c1cc(I)c(Oc2ccc(OC)cc2)c(I)c1 [DIME, methyl 3,5-diiodo-4-(4'-methoxyphenoxy) benzoate]",DNA breaks,[1],induces DNA breaks
same,"Activation of caspase 3, single drug",[2],small rate of caspase 3 activity
same,Caspase 3 increase in cell-free extracts,[3],do not show an increase in caspase 3
same,Growth of non-malignant mouse pituitary tumor,[4],no inhibitory activity
same,DIME uptake / permeability of nontumor cells,[5],impermeable to DIME; also recorded: take up significantly less DIME
same,half-life (t1/2) in serum,[6],2 to 2.5 h
same,Cytostatic and cytocidal activity in cellular assays,[7],highly active
same,Growth of malignant cell types,[7],inhibit the growth of a variety of malignant cell types
same,Reduction of DIME uptake,[8],50%
same,M-block,[9],induces M-block
same,Growth of mammary cancer xenografts (MDA-MB-231),"[10]; 250 mg/kg by gavage once daily, 5 days a week for 32 days, nude mice",significant reduction of malignant tumor growth
same,"MDA-MB-231 tumor volume, Day 14 ± SEM","[10]; DIME 250 mg/kg by gavage, 5 days per week, 32 days, control 284.6 ± 42.0, p = 0.06, in mm³ (unit assumed)",172.0 ± 34.3
same,"MDA-MB-231 tumor volume, Day 21 ± SEM","[10]; DIME 250 mg/kg by gavage, control 622.2 ± 58.1, p = 0.02, in mm³ (unit assumed)",285.7 ± 62.4
same,"MDA-MB-231 tumor volume, Day 32 ± SEM","[10]; DIME 250 mg/kg by gavage, control 1176.6 ± 222.4, p = 0.01, in mm³ (unit assumed)",543.8
same,"% decrease (tumor volume), Day 14",[10]; DIME 250 mg/kg vs control,40%
same,"% decrease (tumor volume), Day 21",[10]; DIME 250 mg/kg vs control,54%
same,"% decrease (tumor volume), Day 28",[10]; DIME 250 mg/kg vs control,56%
same,"% decrease (tumor volume), Day 32",[10]; DIME 250 mg/kg vs control,54%
same,Inhibition of colony formation of DR6 and DR7 clones,[11],only marginal inhibition of colony formation
same,Tumor cell apoptosis / micronucleation,[12],induce tumor cell apoptosis preceded by micronucleation
same,Ill effects,[13],remarkably nontoxic; also recorded: No ill effects were observed
same,Metabolic or cell differentiating activity (tadpole metamorphosis),[14],no significant metabolic or cell differentiating activity
same,Inhibition of uptake of iodine into the thyroid,[15],15%
same,Binding to microtubules,[16],bind to microtubules
